Marks after values point to notes of the source that are not given here.
How the values were obtained:
PBMC cells = assay: Cell mitosis assay; assay type: cell-based, human
Method: Peripheral blood mononucleocytes (PBMCs) from healthy subjects were separated from whole blood (Quintiles, London, UK) using a density gradient (Histopaque®-1077, Sigma-Aldrich, Poole, UK). The PBMCs (3 million cells per sample) were subsequently treated with 2% PHA (Sigma-Aldrich, Poole, UK) for 48 hr, followed by a 20 hr exposure to varying concentrations of test compounds. At 2 hr before collection, PBMCs were treated with demecolcine (0.1 μg/mL; Invitrogen, Paisley, UK,) to arrest cells in metaphase. To observe mitotic cells, PBMCs were permeabilised and fixed by adding Intraprep (50 μL; Beckman Coulter, France), and stained with anti-phospho-histone 3 ([…]; #9701; Cell Signalling, Danvers, Mass.) and propidium iodide (1 mg/mL; Sigma-Aldrich, Poole, UK,) as previously described (Muehlbauer P. A. and Schuler M. J., Mutation Research, 2003, 537:117-130). Fluorescence was observed using an ATTUNE flow cytometer (Invitrogen, Paisley, UK), gating for lymphocytes.

p38MAPKγ (MAPK12) = p38MAPKγ (MAPK12) (Homo sapiens (Human), UniProt P53778); assay: p38 MAPKγ enzyme inhibition (FRET, Z-LYTE); assay type: biochemical
p38MAPKγ (MAPK12), sequence (P53778 whole entry): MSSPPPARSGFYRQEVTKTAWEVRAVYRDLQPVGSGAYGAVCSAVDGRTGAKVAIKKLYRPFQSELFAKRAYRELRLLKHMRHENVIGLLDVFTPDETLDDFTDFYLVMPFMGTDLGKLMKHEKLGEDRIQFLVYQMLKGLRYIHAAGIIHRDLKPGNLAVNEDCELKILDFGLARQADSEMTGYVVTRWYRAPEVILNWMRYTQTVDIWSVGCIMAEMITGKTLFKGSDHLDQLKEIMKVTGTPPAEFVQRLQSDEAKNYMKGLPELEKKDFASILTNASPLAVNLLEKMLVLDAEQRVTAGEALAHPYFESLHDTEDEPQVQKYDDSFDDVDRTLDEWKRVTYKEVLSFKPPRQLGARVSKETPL
Method in brief: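 Z-LYTE FRET kinase format on donor/acceptor-labeled synthetic peptide; protease development 1 hr cleaves only non-phosphorylated peptide. Phosphorylation derived from coumarin/fluorescein emission ratio, low ratio indicating high phosphorylation.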

d-U937 cells = assay: Cell viability: MTT assay; assay type: cell-based, human; conditions: 1 μg/mL
Method in brief: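 Differentiated U937 cells exposed to compound at 1 or 10 μg/mL final, either 4 h in 5% FCS RPMI1640 or 24 h in 10% FCS RPMI1640. After medium replacement, MTT added 1 h, formazan dissolved in DMSO, A550 read. % viability loss vs 0.5% DMSO vehicle; apparent viability gain shown as negative %.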

GSK 3α enzyme isoform = GSK 3α enzyme isoform (Homo sapiens (Human), UniProt P49840); assay: GSK 3α enzyme inhibition (FRET, Z-LYTE); assay type: biochemical; conditions: read-out: IC50 Values for Enzyme Inhibition GSK3α
GSK 3α enzyme isoform, sequence (P49840 whole entry, canonical isoform): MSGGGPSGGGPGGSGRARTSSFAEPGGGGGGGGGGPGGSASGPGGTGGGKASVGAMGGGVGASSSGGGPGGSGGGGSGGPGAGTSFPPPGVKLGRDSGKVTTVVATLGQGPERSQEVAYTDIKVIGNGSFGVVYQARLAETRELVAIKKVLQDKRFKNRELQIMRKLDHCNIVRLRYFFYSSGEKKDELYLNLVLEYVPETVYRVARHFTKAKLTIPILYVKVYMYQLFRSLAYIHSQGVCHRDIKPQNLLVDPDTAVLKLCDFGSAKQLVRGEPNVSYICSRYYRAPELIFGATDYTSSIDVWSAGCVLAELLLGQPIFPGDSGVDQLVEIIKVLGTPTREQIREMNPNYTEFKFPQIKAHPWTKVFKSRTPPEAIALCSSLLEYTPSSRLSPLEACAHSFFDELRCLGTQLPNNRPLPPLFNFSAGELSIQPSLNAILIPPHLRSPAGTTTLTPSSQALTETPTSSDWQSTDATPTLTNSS
Method in brief: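 Human GSK3α (500 ng/mL stock) was preincubated 2 h at RT with compound (stocks 4, 0.4, 0.04 or 0.004 μg/mL), then given FRET peptide (8 μM stock) and ATP (40 μM stock) for 1 h. After 1 h protease development, the coumarin/fluorescein emission ratio gave phosphorylation level.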

[1] = molecular target: p38 MAPKα isoform (MAPK14) (Homo sapiens (Human), UniProt Q16539); assay: p38 MAPKα enzyme inhibition (FRET, Z-LYTE); assay type: biochemical
p38 MAPKα isoform (MAPK14), sequence (Q16539 whole entry, canonical isoform): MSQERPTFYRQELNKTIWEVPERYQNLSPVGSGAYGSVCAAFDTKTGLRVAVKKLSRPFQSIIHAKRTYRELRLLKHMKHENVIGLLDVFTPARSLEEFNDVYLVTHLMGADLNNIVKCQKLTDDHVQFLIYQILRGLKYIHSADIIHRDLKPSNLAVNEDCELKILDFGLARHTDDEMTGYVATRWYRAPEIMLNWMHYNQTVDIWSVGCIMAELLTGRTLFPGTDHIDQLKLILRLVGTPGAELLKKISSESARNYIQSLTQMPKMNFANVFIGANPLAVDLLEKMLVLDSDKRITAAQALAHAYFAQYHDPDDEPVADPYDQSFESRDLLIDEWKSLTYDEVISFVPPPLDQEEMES

[2] = system: ICAM-1 expression in BEAS2B cells; assay: Poly I:C-induced ICAM-1 expression in BEAS2B cells; assay type: cell-based, human; conditions: Homo sapiens, BEAS-2B, read-out: PolyIC/ICAM1 IC50 (BEAS2B)
Method in brief: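 BEAS2B human bronchial epithelial cells pre-incubated 2 h with compound, then transfected with 1 μg/mL poly I:C plus Oligofectamine. After 18 h, surface ICAM-1 measured by cell-based ELISA (OD450–655), normalised to crystal violet cell count (OD595). Inhibition calculated against vehicle control.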

HRV16 = HRV16 induced CPE in MRC5 cells; assay type: cell-based, human rhinovirus; conditions: tested at 0.0008 μg/mL, low cell viability at 0.04 μg/mL
Method: The supernatants were aspirated, and then fresh media added followed by incubation for 4 days. Where appropriate, cells were pre-incubated with compound or DMSO for 2 hr, and the compounds and DMSO added again after washout of the virus.
The percentage inhibition for each well was calculated. The IC50 value was calculated from the concentration-response curve generated by the serial dilutions of the test compounds.

## Cc1ccc(-n2nc(C(C)(C)C)cc2NC(=O)Nc2ccc(Oc3ccnc(Nc4cccc(O)c4)n3)c3ccccc23)cc1 [Example 2, 1-(3-(tert-Butyl)-1-(p-tolyl)-1H-pyrazol-5-yl)-3-(4-((2-((3-hydroxyphenyl)amino)pyrimidin-4-yl)oxy)naphthalen-1-yl)urea]
PBMC cells; 5 μg/mL
  Mitosis Assay % inhibition in PBMC Cells: 70.6%
p38MAPKγ (MAPK12)
  IC50: 557 nM
d-U937 cells; 4 h
  MTT Assay Cell viability at time point in d-U937 Cells: −ve (−ve and +ve indicate the value is below and above respectively, the no significant effect threshold defined as 30% inhibition at 1 μg/mL at the time point indicated)
d-U937 cells; 24 h
  MTT Assay Cell viability at time point in d-U937 Cells: −ve (−ve and +ve indicate the value is below and above respectively, the no significant effect threshold defined as 30% inhibition at 1 μg/mL at the time point indicated)

## COc1ccc(-n2nc(C(C)(C)C)cc2NC(=O)Nc2ccc(Oc3ccnc(Nc4ccccc4)n3)c3ccccc23)cc1 [Example 7, 1-(3-(tert-butyl)-1-(4-methoxyphenyl)-1H-pyrazol-5-yl)-3-(4-((2-(phenylamino)pyrimidin-4-yl)oxy)naphthalen-1-yl)urea]
PBMC cells; 5 μg/mL
  Mitosis Assay % inhibition in PBMC Cells: 10.2%
p38MAPKγ (MAPK12)
  IC50: 1700 nM
GSK 3α enzyme isoform
  IC50: 3500 nM
[1]
  IC50: 170 nM
[2]
  IC50: 23 nM
d-U937 cells; 4 h
  MTT Assay Cell viability at time point in d-U937 Cells: −ve (−ve and +ve indicate the value is below and above respectively, the no significant effect threshold defined as 30% inhibition at 1 μg/mL at the time point indicated)
d-U937 cells; 24 h
  MTT Assay Cell viability at time point in d-U937 Cells: −ve (−ve and +ve indicate the value is below and above respectively, the no significant effect threshold defined as 30% inhibition at 1 μg/mL at the time point indicated)

## COc1ccc(Nc2nccc(Oc3ccc(NC(=O)Nc4cc(C(C)(C)C)nn4-c4ccc(C)cc4)c4ccccc34)n2)c(OC)c1 [Example 8, 1-(3-(tert-butyl)-1-(p-tolyl)-1H-pyrazol-5-yl)-3-(4-((2-((2,4-dimethoxyphenyl)amino)pyrimidin-4-yl)oxy)naphthalen-1-yl)urea]
PBMC cells; 1 μg/mL
  Mitosis Assay % inhibition in PBMC Cells: 15.6%
p38MAPKγ (MAPK12)
  IC50: > 15500 nM
GSK 3α enzyme isoform
  IC50: > 15500 nM
[1]
  IC50: 151 nM
[2]
  IC50: 22 nM
d-U937 cells; 4 h
  MTT Assay Cell viability at time point in d-U937 Cells: −ve (−ve and +ve indicate the value is below and above respectively, the no significant effect threshold defined as 30% inhibition at 1 μg/mL at the time point indicated)
d-U937 cells; 24 h
  MTT Assay Cell viability at time point in d-U937 Cells: −ve (−ve and +ve indicate the value is below and above respectively, the no significant effect threshold defined as 30% inhibition at 1 μg/mL at the time point indicated)

## Cc1ccc(-n2nc(C(C)(C)C)cc2NC(=O)Nc2ccc(Oc3ccnc(Nc4ccc(O)cc4)n3)c3ccccc23)cc1 [Example 9, 1-(3-(tert-butyl)-1-(p-tolyl)-1H-pyrazol-5-yl)-3-(4-((2-((4-hydroxyphenyl)amino)pyrimidin-4-yl)oxy)naphthalen-1-yl)urea]
PBMC cells; 5 μg/mL
  Mitosis Assay % inhibition in PBMC Cells: 50.3%
p38MAPKγ (MAPK12)
  IC50: 760 nM
GSK 3α enzyme isoform
  IC50: 3260 nM
[1]
  IC50: 171 nM
d-U937 cells; 4 h
  MTT Assay Cell viability at time point in d-U937 Cells: −ve (−ve and +ve indicate the value is below and above respectively, the no significant effect threshold defined as 30% inhibition at 1 μg/mL at the time point indicated)
d-U937 cells; 24 h
  MTT Assay Cell viability at time point in d-U937 Cells: −ve (−ve and +ve indicate the value is below and above respectively, the no significant effect threshold defined as 30% inhibition at 1 μg/mL at the time point indicated)

## CCOc1ccc(Nc2nccc(Oc3ccc(NC(=O)Nc4cc(C(C)(C)C)nn4-c4ccc(C)cc4)c4ccccc34)n2)cc1 [Example 22, 1-(3-(tert-butyl)-1-(p-tolyl)-1H-pyrazol-5-yl)-3-(4-((2-((4-ethoxyphenyl)amino)pyrimidin-4-yl)oxy)naphthalen-1-yl)urea]
PBMC cells; 5 μg/mL
  Mitosis Assay % inhibition in PBMC Cells: 70.8%
p38MAPKγ (MAPK12)
  IC50: > 1590 nM
GSK 3α enzyme isoform
  IC50: > 1590 nM
[1]
  IC50: 281 nM
[2]
  IC50: 13 nM
d-U937 cells; 4 h
  MTT Assay Cell viability at time point in d-U937 Cells: −ve (−ve and +ve indicate the value is below and above respectively, the no significant effect threshold defined as 30% inhibition at 1 μg/mL at the time point indicated)
d-U937 cells; 24 h
  MTT Assay Cell viability at time point in d-U937 Cells: −ve (−ve and +ve indicate the value is below and above respectively, the no significant effect threshold defined as 30% inhibition at 1 μg/mL at the time point indicated)

## COc1cc(Nc2nccc(Oc3ccc(NC(=O)Nc4cc(C(C)(C)C)nn4-c4ccc(C)cc4)c4ccccc34)n2)ccc1O [Example 25, 1-(3-(tert-butyl)-1-(p-tolyl)-1H-pyrazol-5-yl)-3-(4-((2-((4-hydroxy-3-methoxyphenyl)amino)pyrimidin-4-yl)oxy)naphthalen-1-yl)urea]
PBMC cells; 1 μg/mL
  Mitosis Assay % inhibition in PBMC Cells: 29.1%
PBMC cells; 5 μg/mL
  Mitosis Assay % inhibition in PBMC Cells: 63.5%
p38MAPKγ (MAPK12)
  IC50: 281 nM
GSK 3α enzyme isoform
  IC50: > 1590 nM
[1]
  IC50: 77 nM
HRV16
  HRV CPE (MRC5) % inhibition: 33%*
[2]
  IC50: 2.5 nM
d-U937 cells; 4 h
  MTT Assay Cell viability at time point in d-U937 Cells: −ve (−ve and +ve indicate the value is below and above respectively, the no significant effect threshold defined as 30% inhibition at 1 μg/mL at the time point indicated)
d-U937 cells; 24 h
  MTT Assay Cell viability at time point in d-U937 Cells: −ve (−ve and +ve indicate the value is below and above respectively, the no significant effect threshold defined as 30% inhibition at 1 μg/mL at the time point indicated)

## COc1ccc(Nc2nccc(Oc3ccc(NC(=O)Nc4cc(C(C)(C)C)nn4-c4ccc(C)cc4)c4ccccc34)n2)cc1OC [Example 27, 1-(3-(tert-butyl)-1-(p-tolyl)-1H-pyrazol-5-yl)-3-(4-((2-((3,4-dimethoxyphenyl)amino)pyrimidin-4-yl)oxy)naphthalen-1-yl)urea]
PBMC cells; 5 μg/mL
  Mitosis Assay % inhibition in PBMC Cells: 11.2%
p38MAPKγ (MAPK12)
  IC50: 535 nM
GSK 3α enzyme isoform
  IC50: 2110 nM
[1]
  IC50: 105 nM
[2]
  IC50: 1.6 nM
d-U937 cells; 4 h
  MTT Assay Cell viability at time point in d-U937 Cells: +ve (−ve and +ve indicate the value is below and above respectively, the no significant effect threshold defined as 30% inhibition at 1 μg/mL at the time point indicated)
d-U937 cells; 24 h
  MTT Assay Cell viability at time point in d-U937 Cells: −ve (−ve and +ve indicate the value is below and above respectively, the no significant effect threshold defined as 30% inhibition at 1 μg/mL at the time point indicated)

## Cc1ccc(-n2nc(C(C)(C)C)cc2NC(=O)Nc2ccc(Oc3ccnc(Nc4ccc(O)cc4O)n3)c3ccccc23)cc1 [Example 32, 1-(3-(tert-butyl)-1-(p-tolyl)-1H-pyrazol-5-yl)-3-(4-((2-((2,4-dihydroxyphenyl)amino)pyrimidin-4-yl)oxy)naphthalen-1-yl)urea]
PBMC cells; 5 μg/mL
  Mitosis Assay % inhibition in PBMC Cells: 33.0%
p38MAPKγ (MAPK12)
  IC50: > 1620 nM
GSK 3α enzyme isoform
  IC50: > 1620 nM
[1]
  IC50: 189 nM
[2]
  IC50: 21 nM
d-U937 cells; 4 h
  MTT Assay Cell viability at time point in d-U937 Cells: −ve (−ve and +ve indicate the value is below and above respectively, the no significant effect threshold defined as 30% inhibition at 1 μg/mL at the time point indicated)
d-U937 cells; 24 h
  MTT Assay Cell viability at time point in d-U937 Cells: −ve (−ve and +ve indicate the value is below and above respectively, the no significant effect threshold defined as 30% inhibition at 1 μg/mL at the time point indicated)

## COc1ccc(-n2nc(C(C)(C)C)cc2NC(=O)Nc2ccc(Oc3ccnc(Nc4ccc(O)cc4)n3)c3ccccc23)cc1 [Example 33, 1-(3-(tert-butyl)-1-(4-methoxyphenyl)-1H-pyrazol-5-yl)-3-(4-((2-((4-hydroxyphenyl)amino)pyrimidin-4-yl)oxy)naphthalen-1-yl)urea]
PBMC cells; 5 μg/mL
  Mitosis Assay % inhibition in PBMC Cells: 67.2%
p38MAPKγ (MAPK12)
  IC50: 264 nM
GSK 3α enzyme isoform
  IC50: 2380 nM
[1]
  IC50: 60 nM
[2]
  IC50: 2.6 nM
d-U937 cells; 4 h
  MTT Assay Cell viability at time point in d-U937 Cells: −ve (−ve and +ve indicate the value is below and above respectively, the no significant effect threshold defined as 30% inhibition at 1 μg/mL at the time point indicated)
d-U937 cells; 24 h
  MTT Assay Cell viability at time point in d-U937 Cells: −ve (−ve and +ve indicate the value is below and above respectively, the no significant effect threshold defined as 30% inhibition at 1 μg/mL at the time point indicated)
